Laboratory results taken from ChEMBL document CHEMBL1131286, “Design and synthesis of m1-selective muscarinic agonists: (R)-(-)-(Z)-1-Azabicyclo[2.2.1]heptan-3-one, O-(3-(3'-methoxyphenyl)-2-propynyl)oxime maleate (CI-1017), a functionally m1-selective muscarinic agonist” (J Med Chem, 1998).
One block for each compound: values may come before it. Active and inactive are the calls of the source. No cut-off for these calls is given here.

What was measured:
[1] = biological target: T1, Muscarinic acetylcholine receptor M1 (Homo sapiens) (UniProt P11229); assay: Stimulations of inositol phosphate(PI) accumulation in transfected CHO cells in Muscarinic acetylcholine receptor M1 values are the maximal response obtained from the compound tested at 100 uM normalized to the effect of carbachol.; format: functional, cell-based
T1 sequence (whole entry): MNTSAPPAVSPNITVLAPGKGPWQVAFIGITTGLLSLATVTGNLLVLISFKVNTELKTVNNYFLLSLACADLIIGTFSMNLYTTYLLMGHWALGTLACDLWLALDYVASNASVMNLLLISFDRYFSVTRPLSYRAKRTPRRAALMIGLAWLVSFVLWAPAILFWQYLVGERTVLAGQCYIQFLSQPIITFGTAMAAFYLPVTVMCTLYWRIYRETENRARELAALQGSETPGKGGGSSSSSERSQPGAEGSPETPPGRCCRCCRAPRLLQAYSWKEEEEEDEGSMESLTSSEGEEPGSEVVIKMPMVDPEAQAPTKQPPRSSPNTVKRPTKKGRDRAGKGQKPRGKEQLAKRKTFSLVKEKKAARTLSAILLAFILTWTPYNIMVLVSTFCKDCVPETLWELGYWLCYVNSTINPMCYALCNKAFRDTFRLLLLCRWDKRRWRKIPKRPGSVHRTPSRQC

[2] = biological target: Muscarinic acetylcholine receptor M3 (Homo sapiens) (UniProt P20309); assay: Stimulations of inositol phosphate(PI) accumulation in transfected CHO cells in Muscarinic acetylcholine receptor M3 values are the maximal response obtained from the compound tested at 100 uM normalized to the effect of carbachol.; format: functional, cell-based
Sequence of Muscarinic acetylcholine receptor M3 (Homo sapiens) (P20309 whole entry, looked up): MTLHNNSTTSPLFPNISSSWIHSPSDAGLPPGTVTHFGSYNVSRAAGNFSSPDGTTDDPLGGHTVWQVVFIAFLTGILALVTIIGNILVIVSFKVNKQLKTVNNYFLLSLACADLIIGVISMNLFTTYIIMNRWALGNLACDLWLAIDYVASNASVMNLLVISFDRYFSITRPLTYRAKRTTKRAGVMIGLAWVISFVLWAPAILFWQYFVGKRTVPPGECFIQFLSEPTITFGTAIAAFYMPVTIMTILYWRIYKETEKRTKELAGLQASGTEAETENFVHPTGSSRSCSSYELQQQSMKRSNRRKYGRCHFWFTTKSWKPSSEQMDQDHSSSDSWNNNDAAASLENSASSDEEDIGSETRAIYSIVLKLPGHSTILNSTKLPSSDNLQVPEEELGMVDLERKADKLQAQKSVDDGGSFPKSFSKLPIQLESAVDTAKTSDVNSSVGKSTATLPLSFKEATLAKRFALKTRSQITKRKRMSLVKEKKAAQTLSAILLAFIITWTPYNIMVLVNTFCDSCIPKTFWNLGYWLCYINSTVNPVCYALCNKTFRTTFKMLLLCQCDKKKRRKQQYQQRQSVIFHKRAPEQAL

[3] = biological target: T2, Muscarinic acetylcholine receptor M5 (Homo sapiens) (UniProt P08912); assay: Stimulations of inositol phosphate(PI) accumulation in transfected CHO cells in Muscarinic acetylcholine receptor M5 values are the maximal response obtained from the compound tested at 100 uM normalized to the effect of carbachol.; format: functional, cell-based
T2 sequence (whole entry): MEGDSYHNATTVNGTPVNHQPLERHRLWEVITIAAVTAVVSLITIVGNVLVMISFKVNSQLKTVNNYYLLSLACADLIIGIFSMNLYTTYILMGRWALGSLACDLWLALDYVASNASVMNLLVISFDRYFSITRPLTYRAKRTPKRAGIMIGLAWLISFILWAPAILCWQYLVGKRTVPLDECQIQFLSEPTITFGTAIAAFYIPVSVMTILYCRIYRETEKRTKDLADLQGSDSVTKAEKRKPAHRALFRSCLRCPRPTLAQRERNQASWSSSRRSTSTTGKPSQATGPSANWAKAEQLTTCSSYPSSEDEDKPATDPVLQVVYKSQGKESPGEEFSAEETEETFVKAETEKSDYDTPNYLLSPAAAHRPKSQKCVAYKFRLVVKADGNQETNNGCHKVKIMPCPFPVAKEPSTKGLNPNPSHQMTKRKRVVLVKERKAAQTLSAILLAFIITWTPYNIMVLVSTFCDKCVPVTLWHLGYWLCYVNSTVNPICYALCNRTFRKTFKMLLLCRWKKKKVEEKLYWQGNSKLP

[4] = biological target: T3, Muscarinic acetylcholine receptor M2 (Homo sapiens) (UniProt P08172); assay: Reversal of forskolin-stimulated accumulation of […] in transfected CHO cells, against Muscarinic acetylcholine receptor M2; Not active up to 1 mM; format: functional, cell-based
T3 sequence (whole entry): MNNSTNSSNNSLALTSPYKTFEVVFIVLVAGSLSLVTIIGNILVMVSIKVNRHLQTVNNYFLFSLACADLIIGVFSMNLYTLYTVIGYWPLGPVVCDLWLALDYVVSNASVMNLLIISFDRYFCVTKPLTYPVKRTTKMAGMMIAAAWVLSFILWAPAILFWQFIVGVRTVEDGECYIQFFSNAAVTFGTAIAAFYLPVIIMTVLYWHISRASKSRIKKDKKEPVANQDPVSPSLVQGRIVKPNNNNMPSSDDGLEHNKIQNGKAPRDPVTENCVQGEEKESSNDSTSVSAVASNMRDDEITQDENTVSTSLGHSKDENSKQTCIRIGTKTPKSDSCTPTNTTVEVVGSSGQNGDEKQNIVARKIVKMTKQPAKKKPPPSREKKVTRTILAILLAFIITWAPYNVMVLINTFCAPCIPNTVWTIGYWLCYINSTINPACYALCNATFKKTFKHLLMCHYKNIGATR

[5] = biological target: T4, Muscarinic acetylcholine receptor M4 (Homo sapiens) (UniProt P08173); assay: Reversal of forskolin-stimulated accumulation of […] in transfected CHO cells, against Muscarinic acetylcholine receptor M4; Not active; format: functional, cell-based
T4 sequence (whole entry): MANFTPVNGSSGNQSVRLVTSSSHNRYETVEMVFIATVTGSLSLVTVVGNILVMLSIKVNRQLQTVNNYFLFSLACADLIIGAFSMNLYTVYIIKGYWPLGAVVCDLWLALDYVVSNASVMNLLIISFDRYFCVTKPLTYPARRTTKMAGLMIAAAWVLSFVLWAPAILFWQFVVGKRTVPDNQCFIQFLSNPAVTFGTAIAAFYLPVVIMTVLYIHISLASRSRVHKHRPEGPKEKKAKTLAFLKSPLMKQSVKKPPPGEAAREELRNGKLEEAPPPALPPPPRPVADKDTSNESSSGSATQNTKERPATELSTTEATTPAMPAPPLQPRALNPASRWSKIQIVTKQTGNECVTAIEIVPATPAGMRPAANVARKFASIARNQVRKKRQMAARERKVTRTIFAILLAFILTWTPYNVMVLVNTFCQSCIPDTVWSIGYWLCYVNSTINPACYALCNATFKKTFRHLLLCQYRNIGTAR

[6] = biological target: Muscarinic acetylcholine receptor (Rattus norvegicus) (UniProt P08482+P08483+P08485+P08911+P10980); assay: Ratio of QNB binding to CMD binding was evaluated; format: protein assay
[7] = biological target: T5, Muscarinic acetylcholine receptor M1 (Homo sapiens, UniProt P11229); assay: biochemical; format: cell-based, CHO
T5 sequence (P11229 whole entry): T1 sequence (whole entry)
Description: Binding affinity of [3H]-QNB to CHO cells expressing human Muscarinic acetylcholine receptor M1

[8] = biological target: Muscarinic acetylcholine receptor M3 (Homo sapiens) (UniProt P20309); assay: Inositol phosphate(PI) accumulation in CHO cells expressing Muscarinic acetylcholine receptor M3 as maximal response at 100 uM relative to carbachol; format: functional, cell-based
[9] = biological target: T2, Muscarinic acetylcholine receptor M5 (Homo sapiens); assay: Stimulations of inositol phosphate(PI) ccumulation in transfected CHO cells in Muscarinic acetylcholine receptor M5 values are the maximal response obtained from the compound tested at 100 uM normalized to the effect of carbachol.; format: functional, cell-based
[10] = biological target: T6, Muscarinic acetylcholine receptor M2 (Homo sapiens, UniProt P08172); assay: Binding affinity of [3H]QNB to CHO cells expressing human Muscarinic acetylcholine receptor M2; format: cell-based
T6 sequence (P08172 whole entry): T3 sequence (whole entry)

[11] = biological target: T1, Muscarinic acetylcholine receptor M1 (Homo sapiens); assay: Stimulation of inositol phosphate(PI) accumulation in CHO cells expressing Muscarinic acetylcholine receptor M1 as maximal response at 100 uM relative to carbachol; format: functional, cell-based
[12] = biological target: T4, Muscarinic acetylcholine receptor M4 (Homo sapiens); assay: Maximal response obtained for each drug normalized to effect of carbachol in Muscarinic acetylcholine receptor M4; format: functional
[13] = biological target: Muscarinic acetylcholine receptor M3 (Homo sapiens) (UniProt P20309); assay: Maximal response obtained for each drug normalized to effect of carbachol in Muscarinic acetylcholine receptor M3; format: functional
[14] = biological target: T3, Muscarinic acetylcholine receptor M2 (Homo sapiens); assay: Amplification of transfected NIH3T3 cells was measured in Muscarinic acetylcholine receptor M2 required to produce half maximal effect; format: functional, cell-based
[15] = biological target: T2, Muscarinic acetylcholine receptor M5 (Homo sapiens); assay: Maximal response obtained for each drug normalized to effect of carbachol in Muscarinic acetylcholine receptor M5; format: functional
[16] = biological target: T2, Muscarinic acetylcholine receptor M5 (Homo sapiens); assay: Amplification of transfected NIH3T3 cells was measured in Muscarinic acetylcholine receptor M5 required to produce half maximal effect; format: functional, cell-based
[17] = biological target: T3, Muscarinic acetylcholine receptor M2 (Homo sapiens); assay: Maximal response obtained for each drug normalized to effect of carbachol in Muscarinic acetylcholine receptor M2; format: functional
[18] = biological target: T4, Muscarinic acetylcholine receptor M4 (Homo sapiens); assay: Amplification of transfected NIH3T3 cells was measured in Muscarinic acetylcholine receptor M4 required to produce half maximal effect; format: functional, cell-based
[19] = biological target: T4, Muscarinic acetylcholine receptor M4 (Homo sapiens); assay: Reversal of forskolin-stimulated accumulation of […] in transfected CHO cells, against Muscarinic acetylcholine receptor M4; format: functional, cell-based; details: concentration not given here
[20] = biological target: T1, Muscarinic acetylcholine receptor M1 (Homo sapiens); assay: Maximal response obtained for each drug normalized to effect of carbachol in Muscarinic acetylcholine receptor M1; format: functional
[21] = biological target: T1, Muscarinic acetylcholine receptor M1 (Homo sapiens); details: NIH3T3
[22] = biological target: T1, Muscarinic acetylcholine receptor M1 (Homo sapiens); details: CHO
[23] = biological target: Muscarinic acetylcholine receptor M3 (Homo sapiens) (UniProt P20309); details: NIH3T3
Description: Amplification of transfected NIH3T3 cells was measured in Muscarinic acetylcholine receptor M3 required to produce half maximal effect

[24] = biological target: T2, Muscarinic acetylcholine receptor M5 (Homo sapiens); details: CHO; 100 uM
[25] = biological target: T4, Muscarinic acetylcholine receptor M4 (Homo sapiens); details: NIH3T3
[26] = biological target: T3, Muscarinic acetylcholine receptor M2 (Homo sapiens); details: CHO
Description: Binding affinity expressed in IC50 labelled by [3H]QNB in CHO cells expressing human Muscarinic acetylcholine receptor M2

[27] = biological target: T2, Muscarinic acetylcholine receptor M5 (Homo sapiens); assay: Inositol phosphate(PI) accumulation in CHO cells expressing Muscarinic acetylcholine receptor M5 as maximal response at 100 uM relative to carbachol; format: functional, cell-based
[28] = biological target: T1, Muscarinic acetylcholine receptor M1 (Homo sapiens); assay: Stimulations of inositol phosphate(PI) accumulation in transfected CHO cells in Muscarinic acetylcholine receptor M1 values are the maximal response obtained from the compound tested at 100 uM normalized to the effects of carbachol.; format: functional, cell-based
[29] = biological target: Muscarinic acetylcholine receptor; assay: Muscarinic acetylcholine receptor binding assay was conducted using [3H]cis-methyldioxolane (CMD) to label agonist sites in membrane preparations from rat neocortex
[30] = biological target: T5, Muscarinic acetylcholine receptor M1; assay: Binding affinity of compound labeled by [3H]QNB in CHO cells selectively expressing human Muscarinic acetylcholine receptor M1; format: cell-based
[31] = biological target: Muscarinic acetylcholine receptor; assay: Muscarinic acetylcholine receptor binding assay was conducted using [3H]quinuclidinyl benzilate (QNB) to label antagonist sites in membrane preparations from rat neocortex
[32] = biological target: T6, Muscarinic acetylcholine receptor M2; assay: Binding affinity of compound labeled by [3H]QNB in CHO cells selectively expressing human Muscarinic acetylcholine receptor M2; format: cell-based
[33] = biological target: T2, Muscarinic acetylcholine receptor M5 (Homo sapiens); assay: Stimulations of inositol phosphate(PI) accumulation in transfected CHO cells in Muscarinic acetylcholine receptor M5 values are the maximal response obtained from the compound tested at 100 uM normalized to the effects of carbachol.; format: functional, cell-based
[34] = biological target: T4, Muscarinic acetylcholine receptor M4 (Homo sapiens); assay: Reversal of forskolin-stimulated accumulation of […] in transfected CHO cells, against Muscarinic acetylcholine receptor M4; NA=Not active up to 1 mM; format: functional, cell-based

SMILES: C(#Cc1ccccc1)CO/N=C1\CN2CCC1C2 (configuration not stated)
Stimulations [1]: 40%
Stimulations [2]: 8%
Stimulations [3]: 1%
ED50 [4]: inactive
ED50 [5]: inactive
Ratio [6]: 108

SMILES: COc1ccc(C#CCO/N=C2\CN3CCC2C3)cc1 (configuration not stated)
IC50 [7]: 10600 nM
CCh [8]: 2%
CCh [9]: 3%
IC50 [10]: 84400 nM
CCh [11]: 89%
Ratio [6]: 119

SMILES: CC(C)=CCO/N=C1\CN2CCC1C2 (configuration not stated)
IC50 [29]: 7.08 nM
IC50 [30]: 216 nM
IC50 [31]: 1270 nM
IC50 [32]: 519 nM
Ratio [6]: 179

SMILES: COc1cccc(C#CCO/N=C2\CN3CCC2C3)c1 (configuration not stated)
CCh [12]: 68%
IC50 [7]: 7680 nM
CCh [13]: 93%
CCh [8]: 6%
ED50 [14]: 1320 nM
CCh [15]: 103%
CCh [33]: 11%
ED50 [16]: 5990 nM
CCh [17]: 81%
ED50 [4]: inactive
IC50 [10]: 52000 nM
ED50 [18]: 93 nM
ED50 [34]: inactive
CCh [20]: 30%
CCh [11]: 82%
Ratio [6]: 250
ED50 [21]: 42 nM
ED50 [23]: 3860 nM

Results, then the compound that gave them:

CCh [12]: 72%
CCh [13]: 87%
ED50 [14]: 1280 nM
Stimulation [2]: 10.4%
CCh [15]: 104%
ED50 [16]: 868 nM
Stimulation [3]: 12.3%
CCh [17]: 92%
ED50 [4]: inactive
ED50 [18]: 51 nM
inhibition [19]: 1.6%
CCh [20]: 41%
ED50 [21]: 42 nM
ED50 [22]: 1000 nM
ED50 [23]: 865 nM
SMILES: COc1cccc(C#CCO/N=C2\CN3CC[C@@H]2C3)c1

ED50 [16]: 1400 nM
Stimulation [3]: 100%
inhibition [19]: 6.3%
ED50 [24]: 2700 nM
ED50 [25]: 100 nM
ED50 [26]: 270 nM
SMILES: C[N+](C)(C)CCOC(N)=O

IC50 [7]: 3340 nM
CCh [8]: 4%
CCh [27]: 3%
IC50 [10]: 20600 nM
CCh [28]: 41%
Ratio [6]: 203
SMILES: Clc1cccc(C#CCO/N=C2\CN3CCC2C3)c1 (configuration not stated)
